Measured values: paper PMC9503518, “Antibacterial and Antifungal Properties of a Novel Antimicrobial Peptide GK-19 and Its Application in Skin and Soft Tissue Infections Induced by MRSA or Candida albicans” (Pharmaceutics, 2022)
Where no end group is shown, it is not given here.

Tests used:
[1] = test system: Candida krusei (C. krusei, ATCC6258); format: cell-based; conditions: 1 × 10^6 CFU/mL, PDB, 12 h, peptide 0-20 μM, absorbance at 600 nm, n = 5
Source text: (§1) Pseudomonas aeruginosa (P. aeruginosa, ATCC27853), Methicillin-Resistant Staphylococcus aureus (MRSA, 2104270609, clinically isolated strain), Escherichia coli (E. coli, ATCC25922), Klebsiella pneumoniae (K. pneumoniae, ATCC700603), Enterococcus faecalis (E. faecalis, ATCC29212), Candida krusei (C. krusei, ATCC6258), Candida albicans (C. albicans, ATCC90028), and Candida glabrata (C. glabrata, ATCCMYA-2950) were obtained from the First Affiliated Hospital of Xi’an Jiaotong University. Bacterial strains were cultured in MHA or MHB. Fungal strains were cultured in PDA or PDB.
(§2) Strains were incubated in MHB or PDB. After growing for 12–16 h at 37 °C, 200 rpm, 100 μL of 1 × 10^6 CFU/mL of the strains was seeded into 96-well plates and incubated with fresh culture medium containing various antimicrobial peptides (peptide concentration: 0, 0.5, 1.0, 2.0, 3.0, 5.0, 10, 15 or 20 μM) for 12 h. Each concentration was repeated five times. Absorbance at 600 nm was measured using the Multilabel Reader Varioskan Flash (Thermo Fisher). […] (1)

[2] = test system: Enterococcus faecalis (E. faecalis, ATCC29212); format: cell-based; conditions: 1 × 10^6 CFU/mL, MHB, 12 h, peptide 0-20 μM, absorbance at 600 nm, n = 5
Source text: as §1, §2

[3] = Peptide stability in water by HPLC; format: physicochemical; conditions: 10 mg/mL in water, 37 °C, 200 rpm, 0 and 48 h, HPLC 220 nm, repeated three times
Description: Antimicrobial peptides were dissolved in water or rat serum with a concentration of 10 mg/mL. The solution was incubated at 37 °C, 200 rpm for different time periods, and diluted 50 times for the HPLC analysis. In water, the incubation time was 0 h and 48 h. In rat serum, the incubation time was 0, 2, 4, 7, 12, 24 or 48 h. Each incubation condition was repeated three times. HPLC was conducted on a Waters HPLC system, which consisted of a 2996 photodiode array detector, a 2695 separation module and a temperature control column oven. Column: Sinochrom ODS-BP, 5 μm, 4.6 × 250 mm (Dalian Elite Analytical Instruments Co., Ltd., Dalian, China). Mobile phase: A: 100% ACN + 0.1% TFA; B: 100% Water + 0.1% TFA. Gradient elution: 0–20 min, 95% B–100% A; 20–25 min, 100% A. Detection wavelength: 220 nm. Flow rate: 1 mL/min. Sample volume: 50 μL (0.2 mg/mL).

rat erythrocytes = conditions: rat RBC suspension in PBS, up to 100 μM, 37 °C, 1 h, OD 576 nm, 1% Triton X-100 = 100%, six replicates
Description: The hemolysis assay was carried out as reported in the literature [22]. Briefly, healthy male rats weighing ~300 g were anesthetized by isoflurane using a small animal anesthesia machine (R640, RWD Life Science, Shenzhen, China). Fresh rat blood samples were drawn from the ventral main vein and collected into an ethylene diamine tetraacetic acid (EDTA) treated anticoagulation tube. The collected blood samples were centrifuged at 4 °C, 350× g for five minutes. Red blood cells (RBCs) were pipetted and washed three times with cold PBS. […] These tubes were incubated at 37 °C, 1000 rpm in a BG200 dry bath incubator (Hangzhou LongGene Scientific Instruments Co., Ltd., Hangzhou, China) for 1 h. Then, the tubes were centrifuged at 350× g for 5 min. Next, 20 μL of the supernatants was mixed with 180 μL of PBS. Afterwards, 100 μL of the mixture was transferred into 96-well plates and hemoglobin release was monitored at 576 nm using a Multilabel Reader Varioskan Flash (Thermo Fisher). The RBC suspension in PBS was used as a negative control. The absorbance of the wells containing 1% Triton X-100 was taken as 100% hemolysis. The percentage of hemolysis was calculated using this formula:Hemolysis (%) = [(OD576 nm of the peptide solution − OD576 nm of the negative control)/(OD576 nm of the positive control − OD576 nm of the negative control)] × 100. (3) […]

MRSA = conditions: mouse, in vivo, 2 h, 50 μM
Description: (§3) The scalded mice models combined with SSTIs by MRSA or C. albicans were constructed. Fifty normal male Kunming mice (5–6 weeks old) weighing ~25 g were anesthetized by isoflurane using a small animal anesthesia machine (R640, RWD Life Science, China). After skin preparation and disinfection, a custom-made circular iron (diameter: 8 mm) (shown in Figure S4) was applied to both sides of the spine of the mice for 10 s at 300 °C, resulting in four scalded wounds. Mice were injected subcutaneously with 5 mg/kg meloxicam (Aladdin, Shanghai, China) for four days (once per day) after scalding for pain relief. Two days after scalding, the skin tissues of the scalded areas were removed carefully, and about 30 μL of 1 × 10^7 CFU/mL of MRSA or C. albicans was applied evenly onto the surfaces of the wounds. The mice were returned to the original feeding environment after the microbial fluid was completely absorbed (1.5–2 h), with two mice per cage. Corncob granules with SPF level were used as padding.
(§4) Two days after microbe inoculating, the scalded wounds of each mouse were divided into four groups randomly. […] The mice were returned to the original feeding environment after the solutions were completely absorbed. The treatment lasted for 12–16 days. Photographs of the wound areas were taken every two days using an iPhone 11 and the wound areas were measured every two days using Image J software (152-win-java8, Bethesda, MD, USA). The average wound areas on day two were used as the reference (100% unhealed) to normalized wound areas. Skin tissues of the wound areas were removed carefully at different time points (n = 5 for each time point) and weighted in a sterile environment. For MRSA infection, 10 mg of the wound tissues was dispersed into 1000 μL of sterile saline solution and the tissue solution was ground into suspension in a tissuelyser (Tissuelyser LT, Servicebio). Then, the tissue suspension was diluted with sterile saline solution 10 times and plated on MHA with a sample volume of 50 μL. For C. albicans infection, 10 mg of the wound tissues was dispersed into 200 μL of sterile saline solution and the tissue solution was also ground into suspension in the tissuelyser. The tissue suspension was then plated on PDA directly with a sample volume of 20 μL. After culturing overnight, the colonies were counted using Image J software or human eyes. In addition, the skin tissues of the wound area were removed carefully at different time points and dispersed into a 4% paraformaldehyde solution for further use.
(§5) The hematoxylin and eosin staining in this study was carried out by Servicebio (Wuhan, China). Briefly, the obtained skin tissues were soaked in 4% paraformaldehyde solution (Beyotime, China) and fixed for more than 24 h. Then, they were dehydrated and embedded with paraffin, and tissue sections having thicknesses of 4 μm were prepared. After deparaffinization and rehydration, hematoxylin and eosin staining was performed.

C. albicans = conditions: mouse, in vivo, 2 h, 50 μM
Description: as §3, §4, §5

Sequence: GFLFKLIPKAIKKLISKFK [GK-19]
- Minimum inhibitory concentration (MIC), C. krusei [1]: 5 µM
- Minimum inhibitory concentration (MIC), E. faecalis [2]: 3 µM
- time for which structural stability was retained in water [3]: ≥ 48 h
- hemolytic activity (rat erythrocytes): negligible hemolytic activity
- MRSA suppressed (inhibition rate) at day eight compared with saline solution groups (MRSA): more than 95%
- C. albicans suppressed (inhibition rate) at day eight compared with saline solution groups (C. albicans): more than 97%
